Earlier results as cited in US9839630B2, “Method of preparing (+)-1,4-dihydro-7-[(3S,4S)-3-methoxy-4-(methylamino)-1-pyrrolidinyl]-4-oxo-1-(2-thiazolyl)-1,8-naphthyridine-3-carboxylic acid” (Sunesis Pharmaceuticals, Inc., priority 2008, dated 2017).

Tests used:
[1] = data of WO 2007/146335
acute myeloid leukemia = conditions: human cancer patients, clinical trials
[2] = system: various cancer cell lines; conditions: literature
xenografts = conditions: literature
ovarian cancer = conditions: human cancer patients, clinical trials

Row | SMILES | activity in a cytotoxicity assay [1] | clinical activity against acute myeloid leukemia (acute myeloid leukemia) | preclinical activity against various cancer cell lines [2] | preclinical activity against xenografts (xenografts) | clinical activity against ovarian cancer (ovarian cancer)
1 | CO[C@H]1CN(c2ccc3c(=O)c(C(=O)O)cn(-c4nccs4)c3n2)C[C@@H]1N [N-desmethyl compound, (+)-1,4-dihydro-7-[(3S,4S)-3-methoxy-4-amino-1-pyrrolidinyl]-4-oxo-1-(2-thiazolyl)-1,8-naphthyridine-3-carboxylic acid] | active | – | – | – | –
2 | CN[C@H]1CN(c2ccc3c(=O)c(C(=O)O)cn(-c4nccs4)c3n2)C[C@@H]1OC [SNS-595, (+)-1,4-dihydro-7-[(3S,4S)-3-methoxy-4-(methylamino)-1-pyrrolidinyl]-4-oxo-1-(2-thiazolyl)-1,8-naphthyridine-3-carboxylic acid] | – | clinical activity | preclinical activity | preclinical activity | clinical activity
